Results published in US20200399222A1, “PICOLINAMIDES AS FUNGICIDES” (Dow AgroSciences LLC, priority 2018, published 2020).
Read-outs that look alike come from different tables or passages of the source.

Key:
Zymoseptoria tritici = assay: Leaf blotch of wheat (SEPTTR) disease control on wheat seedlings; assay type: in vivo; conditions: High volume application, 100 ppm
Description: Example A: Evaluation of Fungicidal Activity: Leaf Blotch of Wheat (Zymoseptoria tritici; Bayer Code […]) Technical grades of materials were dissolved in acetone, which were then mixed with nine volumes of water containing 110 ppm Triton X-100. The fungicide solutions were applied onto wheat seedlings using an automated booth sprayer to run-off. All sprayed plants were allowed to air dry prior to further handling. All fungicides were evaluated using the aforementioned method for their activity vs. all target diseases, unless stated otherwise. Wheat leaf blotch and brown rust activity were also evaluated using track spray applications, in which case the fungicides were formulated as EC formulations, containing 0.1% Trycol 5941 in the spray solutions. Wheat plants (variety Yuma) were grown from seed in a greenhouse in 50% mineral soil/50% soil-less Metro mix until the first leaf was fully emerged, with 7-10 seedlings per pot. These plants were inoculated with an aqueous spore suspension of Zymoseptoria tritici either prior to or after fungicide treatments. After inoculation the plants were kept in 100% relative humidity (one day in a dark dew chamber followed by two to three days in a lighted dew chamber at 20° C.) to permit spores to germinate and infect the leaf. The plants were then transferred to a greenhouse set at 20° C. for disease to develop. When disease symptoms were fully expressed on the 1st leaves of untreated plants, infection levels were assessed on a scale of 0 to 100 percent disease severity. Percent disease control was calculated using the ratio of disease severity on treated plants relative to untreated plants.

Puccinia triticina = assay: Wheat brown rust (PUCCRT) disease control on wheat seedlings; assay type: in vivo; conditions: High volume application, 100 ppm
Description: Technical grades of materials were dissolved in acetone, which were then mixed with nine volumes of water containing 110 ppm Triton X-100. The fungicide solutions were applied onto wheat seedlings using an automated booth sprayer to run-off. All sprayed plants were allowed to air dry prior to further handling. All fungicides were evaluated using the aforementioned method for their activity vs. all target diseases, unless stated otherwise. Wheat leaf blotch and brown rust activity were also evaluated using track spray applications, in which case the fungicides were formulated as EC formulations, containing 0.1% Trycol 5941 in the spray solutions. Example B: Evaluation of Fungicidal Activity: Wheat Brown Rust (Puccinia triticina; Synonym: Puccinia recondita f. sp. tritici; Bayer Code PUCCRT) Wheat plants (variety Yuma) were grown from seed in a greenhouse in 50% mineral soil/50% soil-less Metro mix until the first leaf was fully emerged, with 7-10 seedlings per pot. These plants were inoculated with an aqueous spore suspension of Puccinia triticina either prior to or after fungicide treatments. After inoculation the plants were kept in a dark dew room at 22° C. with 100% relative humidity overnight to permit spores to germinate and infect the leaf. The plants were then transferred to a greenhouse set at 24° C. for disease to develop. Fungicide formulation, application and disease assessment followed the procedures as described in the Example A.

[1] = 24 h, 1 Day Protectant, read-out: SEPTTR disease control rating, 1DP
[2] = 72 h, 3 Day Curative, read-out: SEPTTR disease control rating, 3DC
[3] = 24 h, 1 Day Protectant, read-out: PUCCRT disease control rating, 1DP
[4] = 72 h, 3 Day Curative, read-out: PUCCRT disease control rating, 3DC

Row | Compound | pest or weed control at 100 ppm (Zymoseptoria tritici; [1]) [%] | pest or weed control at 100 ppm (Zymoseptoria tritici; [2]) [%] | pest or weed control at 100 ppm (Puccinia triticina; [3]) [%] | pest or weed control at 100 ppm (Puccinia triticina; [4]) [%]
1 | COc1ccnc(C(=O)N[C@@H](C)C(=O)O[C@H](C)[C@H](C)C2CCCC2)c1O [Example 163] | < 80 | < 80 | < 80 | < 80
2 | COc1ccnc(C(=O)N[C@H](C(=O)O[C@H](C)[C@H](C)c2ccc(F)cc2)C(C)C)c1O [Example 146] | > 80 | < 80 | > 80 | < 80
3 | COc1ccnc(C(=O)N[C@@H](C)C(=O)O[C@H](C)[C@@H](C)c2ccc(F)cc2C)c1O [Example 134] | < 80 | < 80 | < 80 | < 80
4 | COc1ccc([C@H](C)[C@H](C)OC(=O)[C@@H](NC(=O)c2nccc(OC)c2O)C(C)C)c(C)c1 [Example 142] | > 80 | < 80 | > 80 | > 80
5 | COc1ccnc(C(=O)N[C@@H](C)C(=O)O[C@@H](C)[C@@H](C)c2ccc(F)cc2)c1O [Example 131] | < 80 | < 80 | > 80 | > 80
6 | COc1ccnc(C(=O)NCC(=O)O[C@H](C)[C@H](C)c2ccc(F)cc2C)c1O [Example 123] | < 0 | < 80 | > 80 | < 80
7 | COc1ccnc(C(=S)N[C@@H](C)C(=O)O[C@@H](C)[C@@H](C)C2CCCC2)c1O [Example 269] | < 80 | < 80 | < 80 | > 80
8 | COc1ccnc(C(=O)N[C@@H](C)C(=O)O[C@@H](C)[C@@H](C)c2ccc(C)s2)c1O [Example 172] | < 80 | < 80 | < 80 | > 80
9 | COc1ccnc(C(=O)N[C@H](C(=O)O[C@H](C)[C@@H](C)c2ccc(F)cc2C)C(C)C)c1O [Example 144] | < 80 | < 80 | < 0 | < 80
10 | COc1ccnc(C(=O)N[C@@H](C)C(=O)O[C@@H](C)[C@@H](C)c2c(C)cc(F)cc2C)c1O [Example 167] | > 80 | > 80 | > 80 | > 80
11 | COc1ccnc(C(=O)N[C@@H](C)C(=O)O[C@H](C)[C@H](C)c2ccc(C)cc2C)c1O [Example 117] | < 80 | < 80 | < 80 | < 80
12 | COc1ccnc(C(=O)N[C@@H](C)C(=O)O[C@H](C)[C@H](C)c2ccccc2C(F)(F)F)c1O [Example 161] | < 80 | < 80 | < 0 | < 0
13 | COc1ccnc(C(=O)N[C@H](C)C(=O)O[C@H](C)[C@H](C)c2ccc(F)cc2)c1O [Example 156] | < 80 | < 80 | < 0 | < 80
14 | COc1ccnc(C(=O)N[C@@H](C)C(=O)O[C@H](C)[C@H](C)c2c(C)cccc2C)c1O [Example 168] | < 80 | > 80 | > 80 | > 80
15 | COc1ccnc(C(=O)N[C@@H](C)C(=O)O[C@@H](C)[C@H](C)c2ccc(F)cc2C)c1O [Example 129] | < 80 | < 80 | > 80 | < 80
